Experimental data taken from ChEMBL document CHEMBL5325437, “Shifting the selectivity of pyrido[2,3-d]pyrimidin-7(8H)-one inhibitors towards the salt-inducible kinase (SIK) subfamily” (Eur J Med Chem, 2023).

Tests used:
[1] = test system: SK-OV-3; test: Induction of cell cycle arrest in human SK-OV-3 cells assessed as accumulation of cells at S phase at 5 uM incubated for 24 hrs by flow cytometry (reference value: 32%); type: functional
[2] = target: Mitogen-activated protein kinase 8 (Homo sapiens, UniProt P45983); test: Binding affinity to recombinant JNK1 (unknown origin) assessed as stabilization by measuring change in melting temperature at 10 uM by SYPRO orange dye based differential scanning fluorimetry assay
[3] = target: T1, Serine/threonine-protein kinase 3 (Homo sapiens) (UniProt Q13188); test: Binding affinity to recombinant MST2 (unknown origin) assessed as stabilization by measuring change in melting temperature at 10 uM by SYPRO orange dye based differential scanning fluorimetry assay
T1 sequence (whole entry): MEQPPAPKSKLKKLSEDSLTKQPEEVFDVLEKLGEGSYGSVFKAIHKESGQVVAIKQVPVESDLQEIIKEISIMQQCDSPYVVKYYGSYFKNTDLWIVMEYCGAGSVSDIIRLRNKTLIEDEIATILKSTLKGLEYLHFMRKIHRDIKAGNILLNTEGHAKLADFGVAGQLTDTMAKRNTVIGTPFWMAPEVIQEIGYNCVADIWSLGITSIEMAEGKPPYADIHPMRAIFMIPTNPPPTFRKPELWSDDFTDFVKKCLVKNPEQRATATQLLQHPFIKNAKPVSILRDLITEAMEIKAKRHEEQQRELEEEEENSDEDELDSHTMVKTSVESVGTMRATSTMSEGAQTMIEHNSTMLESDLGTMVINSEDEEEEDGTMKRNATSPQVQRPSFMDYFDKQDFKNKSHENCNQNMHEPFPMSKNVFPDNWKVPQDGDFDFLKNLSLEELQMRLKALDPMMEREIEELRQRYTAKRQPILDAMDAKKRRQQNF

[4] = target: T2, Serine/threonine-protein kinase 4 (Homo sapiens) (UniProt Q13043); test: Binding affinity to recombinant MST1 (unknown origin) assessed as stabilization by measuring change in melting temperature at 10 uM by SYPRO orange dye based differential scanning fluorimetry assay
T2 sequence (whole entry): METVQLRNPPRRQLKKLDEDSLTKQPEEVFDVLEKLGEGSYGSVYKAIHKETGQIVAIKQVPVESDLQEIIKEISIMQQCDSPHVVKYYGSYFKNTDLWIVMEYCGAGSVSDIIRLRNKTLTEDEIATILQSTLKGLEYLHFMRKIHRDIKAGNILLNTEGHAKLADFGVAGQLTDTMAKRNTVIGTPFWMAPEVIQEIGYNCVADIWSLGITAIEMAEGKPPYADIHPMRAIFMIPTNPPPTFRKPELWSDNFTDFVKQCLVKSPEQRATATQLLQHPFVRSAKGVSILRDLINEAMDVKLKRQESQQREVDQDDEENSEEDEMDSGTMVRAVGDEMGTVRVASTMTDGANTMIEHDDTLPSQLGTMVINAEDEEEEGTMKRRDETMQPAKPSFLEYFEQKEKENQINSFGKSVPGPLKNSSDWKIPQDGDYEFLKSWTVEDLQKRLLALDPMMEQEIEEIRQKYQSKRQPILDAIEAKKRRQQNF

[5] = target: Ephrin type-A receptor 2 (Homo sapiens, UniProt P29317); test: Binding affinity to recombinant EPHA2 (unknown origin) assessed as stabilization by measuring change in melting temperature at 10 uM by SYPRO orange dye based differential scanning fluorimetry assay
Ephrin type-A receptor 2, sequence (P29317 whole entry): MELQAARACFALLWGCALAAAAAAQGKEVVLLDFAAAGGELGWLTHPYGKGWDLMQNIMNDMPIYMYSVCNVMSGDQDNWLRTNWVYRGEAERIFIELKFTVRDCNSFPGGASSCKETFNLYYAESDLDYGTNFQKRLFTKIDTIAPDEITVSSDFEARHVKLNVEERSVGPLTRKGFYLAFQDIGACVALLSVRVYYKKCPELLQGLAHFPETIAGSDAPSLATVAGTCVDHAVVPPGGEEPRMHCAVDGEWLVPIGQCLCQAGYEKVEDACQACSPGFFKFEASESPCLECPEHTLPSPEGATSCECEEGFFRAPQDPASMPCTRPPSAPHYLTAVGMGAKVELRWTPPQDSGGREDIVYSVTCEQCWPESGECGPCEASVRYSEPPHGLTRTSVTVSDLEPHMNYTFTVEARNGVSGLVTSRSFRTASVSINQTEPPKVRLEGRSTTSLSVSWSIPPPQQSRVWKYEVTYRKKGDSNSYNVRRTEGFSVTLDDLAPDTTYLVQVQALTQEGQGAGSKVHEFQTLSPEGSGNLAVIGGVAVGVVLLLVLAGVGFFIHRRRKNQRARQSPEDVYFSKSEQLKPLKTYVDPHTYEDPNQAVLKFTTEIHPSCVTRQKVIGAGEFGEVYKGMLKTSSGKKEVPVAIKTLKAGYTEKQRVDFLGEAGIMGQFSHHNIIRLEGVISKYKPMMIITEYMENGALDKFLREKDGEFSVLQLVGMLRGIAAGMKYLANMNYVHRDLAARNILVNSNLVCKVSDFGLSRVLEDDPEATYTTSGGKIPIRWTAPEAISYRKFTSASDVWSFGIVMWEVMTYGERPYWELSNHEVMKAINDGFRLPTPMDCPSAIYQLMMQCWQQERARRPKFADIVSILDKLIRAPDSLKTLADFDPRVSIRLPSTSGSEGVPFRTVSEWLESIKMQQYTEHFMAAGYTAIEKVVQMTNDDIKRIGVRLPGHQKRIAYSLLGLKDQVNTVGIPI

Mitogen-activated protein kinase 8, sequence (P45983 whole entry): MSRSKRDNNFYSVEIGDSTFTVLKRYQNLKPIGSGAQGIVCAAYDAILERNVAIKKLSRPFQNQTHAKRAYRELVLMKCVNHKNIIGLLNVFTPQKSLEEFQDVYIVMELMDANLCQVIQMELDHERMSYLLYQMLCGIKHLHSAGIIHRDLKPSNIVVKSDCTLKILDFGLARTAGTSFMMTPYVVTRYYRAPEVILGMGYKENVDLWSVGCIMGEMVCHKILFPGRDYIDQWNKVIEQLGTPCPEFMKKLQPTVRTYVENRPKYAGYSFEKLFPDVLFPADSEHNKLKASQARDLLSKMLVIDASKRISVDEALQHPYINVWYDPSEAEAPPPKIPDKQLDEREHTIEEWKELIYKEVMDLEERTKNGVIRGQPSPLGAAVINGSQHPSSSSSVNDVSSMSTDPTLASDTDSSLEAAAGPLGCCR

ΔTm [2]: 7.3 °C
ΔTm [3]: 0.6 °C
ΔTm [4]: 0.9 °C
ΔTm [5]: 8.9 °C
SMILES: CNc1ncc2cc(-c3cc(F)ccc3F)c(=O)n(CCCCN)c2n1
Activity [1]: 19%
